Marks after values point to notes of the source that are not given here.
Test system: Caco-2 monolayer
Assay: Caco-2 monolayer transmembrane transport, apical to basolateral
Type: in vitro ADME, human
Conditions: for PappAtoB: 40 µM flavonoid, 6 h, A to B, mean ± SD (n = 3); for apparent permeability coefficient (in words): comparison among the dietary flavonoids, Table 2
[1] = RD (rice flour digested products) 400 µg/mL
[2] = WD (wheat flour digested products) 400 µg/mL

Which PappAtoB (No substrate) does the source give for `Oc1cc(O)c2c(c1)O[C@H](c1ccc(O)c(O)c1)[C@@H](O)C2` [(+)-Catechin] here?
Its PappAtoB is 11.22 ± 0.06^a × 10^-6 cm/s.

What about the PappAtoB [1] of the same molecule?
The PappAtoB was 18.75 ± 0.09^b × 10^-6 cm/s.

And the “Increase in PappAtoB” value (RD vs no substrate)?
Its value is 0.67.

And the “Increase in PappAtoB” value (WD vs no substrate)?
The value was −0.04.

What about the “apparent permeability coefficient (in words)” value of the same molecule?
Its value is “notably higher apparent permeability coefficients”.

What does the source list for `Oc1cc(O)c2c(c1)O[C@H](c1ccc(O)c(O)c1)[C@H](O)C2` [(-)-Epicatechin]?
PappAtoB [1]: 37.30 ± 0.04^c × 10^-6 cm/s; Increase in PappAtoB (RD vs no substrate): 0.62; PappAtoB [2]: 27.24 ± 0.45^b × 10^-6 cm/s; Increase in PappAtoB (WD vs no substrate): 0.18; apparent permeability coefficient (in words): notably higher apparent permeability coefficients

Which results are given for `O=c1cc(-c2ccc(O)cc2)oc2cc(O[C@@H]3O[C@H](CO)[C@@H](O)[C@H](O)[C@H]3O)cc(O)c12` [Apigenin-7-O-glucoside]?
PappAtoB [1]: 6.37 ± 0.02^a × 10^-6 cm/s; Increase in PappAtoB (RD vs no substrate): 0.11; PappAtoB [2]: 11.24 ± 0.64^b × 10^-6 cm/s; Increase in PappAtoB (WD vs no substrate): 0.95

With `O=c1cc(-c2ccc(O)cc2)oc2cc(O)cc(O)c12` [Apigenin] as the molecule, how does the PappAtoB [1] read?
The PappAtoB was 3.13 ± 0.01^b × 10^-6 cm/s.

And the “Increase in PappAtoB” value (RD vs no substrate)?
The value was 0.90.

What about the PappAtoB [2] of the same molecule?
Its PappAtoB is 4.18 ± 0.06^c × 10^-6 cm/s.

And the “Increase in PappAtoB” value (WD vs no substrate)?
The value was 1.54.

And the “apparent permeability coefficient (in words)” value?
The value was “comparatively poor”.

What does the source list for `O=c1cc(-c2ccccc2)oc2cc(O)c(O)c(O)c12` [Baicalein]?
PappAtoB [1]: 2.28 ± 0.01^a × 10^-6 cm/s; change of apparent permeability coefficient (in words) (RD group vs no substrate): decrease in the apparent permeability coefficient; Increase in PappAtoB (RD vs no substrate): −0.21; PappAtoB [2]: 3.79 ± 0.10^c × 10^-6 cm/s; change of apparent permeability coefficient (in words) (WD group vs no substrate): increase; Increase in PappAtoB (WD vs no substrate): 0.31; apparent permeability coefficient (in words): comparatively poor

Which results are given for `OC[C@H]1O[C@@H](Oc2cc3c(O)cc(O)cc3[o+]c2-c2ccc(O)c(O)c2)[C@H](O)[C@@H](O)[C@@H]1O` [Cyanidin-3-O-glucoside]?
PappAtoB (No substrate): 7.96 ± 0.08^a × 10^-6 cm/s; PappAtoB [1]: 7.85 ± 0.07^a × 10^-6 cm/s; Increase in PappAtoB (RD vs no substrate): −0.01; PappAtoB [2]: 7.97 ± 0.06^a × 10^-6 cm/s; Increase in PappAtoB (WD vs no substrate): 0.00

For `O=C1c2c(O)cc(O)cc2O[C@H](c2cc(O)c(O)c(O)c2)[C@H]1O` [Dihydromyricetin], which PappAtoB [1] is on record?
Its PappAtoB is 16.38 ± 0.03^b × 10^-6 cm/s.

What about the “Increase in PappAtoB” value (RD vs no substrate) of the same molecule?
The value was −0.05.

What about the PappAtoB [2] of the same molecule?
The PappAtoB was 14.82 ± 0.15^a × 10^-6 cm/s.

What about the “Increase in PappAtoB” value (WD vs no substrate) of the same molecule?
Its value is −0.14.

What about the “apparent permeability coefficient (in words)” value of the same molecule?
Its value is “notably higher apparent permeability coefficients”.

For `COc1ccc(-c2coc3cc(O)ccc3c2=O)cc1` [Formononetin], which PappAtoB [1] is on record?
Its PappAtoB is 12.01 ± 0.01^a × 10^-6 cm/s.

And the “change of apparent permeability coefficient (in words)” value (RD group vs no substrate)?
Its value is “decrease in permeability”.

What about the “Increase in PappAtoB” value (RD vs no substrate) of the same molecule?
Its value is −0.49.

What about the PappAtoB [2] of the same molecule?
The PappAtoB was 22.68 ± 0.95^b × 10^-6 cm/s.

And the “Increase in PappAtoB” value (WD vs no substrate)?
The value was −0.05.

What about the “apparent permeability coefficient (in words)” value of the same molecule?
The value was “notably higher apparent permeability coefficients”.

How did the PappAtoB [1] turn out when `O=c1c(O)c(-c2ccccc2)oc2cc(O)cc(O)c12` [Galangin] was run?
The PappAtoB was 8.76 ± 0.01^b × 10^-6 cm/s.

What about the “Increase in PappAtoB” value (RD vs no substrate) of the same molecule?
Its value is 0.28.

And the PappAtoB [2]?
Its PappAtoB is 12.01 ± 0.49^c × 10^-6 cm/s.

And the “Increase in PappAtoB” value (WD vs no substrate)?
Its value is 0.75.

`O=c1c(-c2ccc(O)cc2)coc2cc(O)cc(O)c12` [Genistein] was tested. Which PappAtoB [1] did it give?
The PappAtoB was 14.45 ± 0.09^b × 10^-6 cm/s.

What about the “Increase in PappAtoB” value (RD vs no substrate) of the same molecule?
Its value is 0.21.

And the PappAtoB [2]?
Its PappAtoB is 22.89 ± 0.09^c × 10^-6 cm/s.

And the “Increase in PappAtoB” value (WD vs no substrate)?
The value was 0.92.

How did the PappAtoB [1] turn out when `COc1ccc([C@@H]2CC(=O)c3c(O)cc(O)cc3O2)cc1O` [Hesperetin] was run?
Its PappAtoB is 1.98 ± 0.02^a × 10^-6 cm/s.

What about the “change of apparent permeability coefficient (in words)” value (RD group vs no substrate) of the same molecule?
The value was “decrease in permeability”.

And the “Increase in PappAtoB” value (RD vs no substrate)?
Its value is −0.73.

And the PappAtoB [2]?
Its PappAtoB is 12.18 ± 0.53^c × 10^-6 cm/s.

What about the “Increase in PappAtoB” value (WD vs no substrate) of the same molecule?
Its value is 0.67.

Which PappAtoB (No substrate) does the source give for `COc1cc(-c2oc3cc(O)cc(O)c3c(=O)c2O[C@@H]2O[C@H](CO[C@@H]3O[C@@H](C)[C@H](O)[C@@H](O)[C@H]3O)[C@@H](O)[C@H](O)[C@H]2O)ccc1O` [Isorhamnetin-3-O-rutinoside] here?
The PappAtoB was 7.78 ± 0.05^b × 10^-6 cm/s.

What about the PappAtoB [1] of the same molecule?
Its PappAtoB is 5.40 ± 0.09^a × 10^-6 cm/s.

And the “Increase in PappAtoB” value (RD vs no substrate)?
The value was −0.31.

What about the PappAtoB [2] of the same molecule?
The PappAtoB was 11.68 ± 0.07^c × 10^-6 cm/s.

And the “Increase in PappAtoB” value (WD vs no substrate)?
Its value is 0.50.

For `COc1cc(-c2oc3cc(O)cc(O)c3c(=O)c2O)ccc1O` [Isorhamnetin], which PappAtoB [1] is on record?
Its PappAtoB is 6.64 ± 0.03^a × 10^-6 cm/s.

What about the “Increase in PappAtoB” value (RD vs no substrate) of the same molecule?
The value was −0.29.

What about the PappAtoB [2] of the same molecule?
Its PappAtoB is 11.42 ± 0.91^c × 10^-6 cm/s.

And the “Increase in PappAtoB” value (WD vs no substrate)?
Its value is 0.23.

For `O=c1c(O)c(-c2ccc(O)cc2)oc2cc(O[C@@H]3O[C@H](CO)[C@@H](O)[C@H](O)[C@H]3O)cc(O)c12` [Kaempferol-7-O-β-glucoside], which PappAtoB (No substrate) is on record?
Its PappAtoB is 0.64 ± 0.05^a × 10^-6 cm/s.

What about the PappAtoB [1] of the same molecule?
The PappAtoB was 1.26 ± 0.02^b × 10^-6 cm/s.

And the “Increase in PappAtoB” value (RD vs no substrate)?
The value was 0.96.

And the PappAtoB [2]?
The PappAtoB was 3.67 ± 0.15^c × 10^-6 cm/s.

What about the “Increase in PappAtoB” value (WD vs no substrate) of the same molecule?
Its value is 4.71.

And the “apparent permeability coefficient (in words)” value?
Its value is “comparatively poor”.

What does the source list for `O=c1c(O)c(-c2cc(O)c(O)c(O)c2)oc2cc(O)cc(O)c12` [Myricetin]?
PappAtoB [1]: 9.07 ± 0.01^b × 10^-6 cm/s; Increase in PappAtoB (RD vs no substrate): 0.63; PappAtoB [2]: 17.79 ± 0.03^c × 10^-6 cm/s; Increase in PappAtoB (WD vs no substrate): 2.21

What does the source list for `O=C1C[C@@H](c2ccc(O)cc2)Oc2cc(O)cc(O)c21` [Naringenin]?
PappAtoB [1]: 5.43 ± 0.06^a × 10^-6 cm/s; Increase in PappAtoB (RD vs no substrate): −0.57; PappAtoB [2]: 11.15 ± 1.54^b × 10^-6 cm/s; Increase in PappAtoB (WD vs no substrate): −0.12; apparent permeability coefficient (in words): notably higher apparent permeability coefficients

`C[C@@H]1O[C@@H](O[C@H]2[C@H](Oc3cc(O)c4c(c3)O[C@H](c3ccc(O)cc3)CC4=O)O[C@H](CO)[C@@H](O)[C@@H]2O)[C@H](O)[C@H](O)[C@H]1O` [Naringin] was tested. Which PappAtoB [1] did it give?
The PappAtoB was 1.80 ± 0.01^b × 10^-6 cm/s.

And the “Increase in PappAtoB” value (RD vs no substrate)?
Its value is 0.34.

What about the PappAtoB [2] of the same molecule?
The PappAtoB was 2.38 ± 0.09^c × 10^-6 cm/s.

What about the “Increase in PappAtoB” value (WD vs no substrate) of the same molecule?
The value was 0.77.

What does the source list for `O=c1c(O)c(-c2ccc(O)c(O)c2)oc2cc(O)cc(O)c12` [Quercetin]?
PappAtoB [1]: 6.54 ± 0.03^a × 10^-6 cm/s; Increase in PappAtoB (RD vs no substrate): −0.29; Increase in PappAtoB (WD vs no substrate): 0.18

Which results are given for `C[C@@H]1O[C@@H](Oc2c(-c3ccc(O)c(O)c3)oc3cc(O)cc(O)c3c2=O)[C@H](O)[C@H](O)[C@H]1O` [Quercitrin]?
PappAtoB [1]: 1.47 ± 0.05^a × 10^-6 cm/s; Increase in PappAtoB (RD vs no substrate): −0.73; PappAtoB [2]: 9.61 ± 0.28^c × 10^-6 cm/s; Increase in PappAtoB (WD vs no substrate): 0.72

For `O=C1c2c(O)cc(O)cc2OC(c2ccc(O)c(O)c2)C1O` (stereo not shown) [Taxifolin], which PappAtoB [1] is on record?
The PappAtoB was 15.66 ± 0.09^a × 10^-6 cm/s.

And the “Increase in PappAtoB” value (RD vs no substrate)?
The value was −0.37.

What about the PappAtoB [2] of the same molecule?
Its PappAtoB is 17.71 ± 0.43^b × 10^-6 cm/s.

What about the “Increase in PappAtoB” value (WD vs no substrate) of the same molecule?
Its value is −0.29.

What about the “apparent permeability coefficient (in words)” value of the same molecule?
The value was “notably higher apparent permeability coefficients”.

For `O=c1cc(-c2ccc(O)cc2)oc2c([C@@H]3O[C@H](CO)[C@@H](O)[C@H](O)[C@H]3O)c(O)cc(O)c12` [Vitexin], which PappAtoB [1] is on record?
The PappAtoB was 25.87 ± 0.04^b × 10^-6 cm/s.

And the “Increase in PappAtoB” value (RD vs no substrate)?
The value was −0.09.

What about the PappAtoB [2] of the same molecule?
Its PappAtoB is 15.54 ± 0.46^a × 10^-6 cm/s.

And the “Increase in PappAtoB” value (WD vs no substrate)?
The value was −0.46.

What about the “apparent permeability coefficient (in words)” value of the same molecule?
The value was “highest apparent permeability coefficient”.

Source: PMC10740061 (Food Chemistry: X, 2023)
